Here are results for nine compounds from patent US6686390B2, “Compounds having antiinflamatory activity: process for their preparation and pharmaceutical compositions containing them” (Dr. Reddy's Laboratories Limited, priority 2000, dated 2004).

In one data set the target is T1, cox-1 enzyme (Ovis aries, UniProt P05979).
T1 construct: Microsomal fraction of ram seminal vesicles used as a source of cox-1 enzyme; from tissue; host or cells: ram seminal vesicles (microsomal fraction)
T1 sequence (P05979 25-600): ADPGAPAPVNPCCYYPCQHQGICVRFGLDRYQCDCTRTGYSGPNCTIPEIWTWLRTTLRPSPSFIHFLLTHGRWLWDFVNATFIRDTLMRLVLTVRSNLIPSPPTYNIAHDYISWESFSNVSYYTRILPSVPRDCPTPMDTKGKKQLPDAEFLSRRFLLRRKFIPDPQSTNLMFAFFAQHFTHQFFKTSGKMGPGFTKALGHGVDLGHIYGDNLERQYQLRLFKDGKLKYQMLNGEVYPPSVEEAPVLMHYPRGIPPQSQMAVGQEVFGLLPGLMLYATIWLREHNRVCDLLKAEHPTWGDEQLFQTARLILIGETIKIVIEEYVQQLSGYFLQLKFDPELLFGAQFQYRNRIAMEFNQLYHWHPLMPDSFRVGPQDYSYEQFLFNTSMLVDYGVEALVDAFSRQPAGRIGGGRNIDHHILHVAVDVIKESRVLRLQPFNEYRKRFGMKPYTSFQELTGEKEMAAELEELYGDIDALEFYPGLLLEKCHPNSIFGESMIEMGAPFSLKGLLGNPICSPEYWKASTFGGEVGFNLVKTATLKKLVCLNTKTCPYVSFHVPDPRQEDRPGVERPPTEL
Nature of the data set: Spectrophotometric assay of cox-1 (TMPD oxidation). Format: biochemical. As to conditions: microsomal fraction of ram seminal vesicles, read-out: Percent inhibition COX-1; for inhibition at 100 µM: Conc. 100 μM. The procedure: (§1) 1. Spectrophotometric assay of cox-1 and cox-2:
(§2) Microsomal fraction of ram seminal vesicles used as a source of cox-1 enzyme (Hemler et al., 1976) and microsomes from sf-9 cells infected with baculo virus containing human cox-2 c-DNA used as a source of cox-2 enzyme (Wanda et al., 1994). Enzyme activity was measured using a chromogenic assay based on oxidation of N,N,N′,N′-tetramethyl-p-phenylenediamine (TMPD) during the reduction of PGG2 to PGH2 as per described by Copeland et al., 1994 with following modifications. The assay mixture (1000 μl) contains […] pH 8.0, 3 μM EDTA, 15 μM hematin, 150 units enzyme and 8% DMSO. The mixture was pre-incubated at 25° C. for 15 minutes before initiation of enzyme reaction in presence of compound/vehicle. The reaction was initiated by the addition of 100 μM arachidonic acid and 120 μM TMPD. The enzyme activity is measured by estimation of the initial velocity of TMPD oxidation over the first 25 seconds of the reaction followed by increase in absorbency at […]. The IC50 values were calculated using non-linear regression analysis of percent inhibitions.

In data set [1] the target is T2, COX-2 (Homo sapiens, UniProt P35354).
T2 sequence (P35354 18-604): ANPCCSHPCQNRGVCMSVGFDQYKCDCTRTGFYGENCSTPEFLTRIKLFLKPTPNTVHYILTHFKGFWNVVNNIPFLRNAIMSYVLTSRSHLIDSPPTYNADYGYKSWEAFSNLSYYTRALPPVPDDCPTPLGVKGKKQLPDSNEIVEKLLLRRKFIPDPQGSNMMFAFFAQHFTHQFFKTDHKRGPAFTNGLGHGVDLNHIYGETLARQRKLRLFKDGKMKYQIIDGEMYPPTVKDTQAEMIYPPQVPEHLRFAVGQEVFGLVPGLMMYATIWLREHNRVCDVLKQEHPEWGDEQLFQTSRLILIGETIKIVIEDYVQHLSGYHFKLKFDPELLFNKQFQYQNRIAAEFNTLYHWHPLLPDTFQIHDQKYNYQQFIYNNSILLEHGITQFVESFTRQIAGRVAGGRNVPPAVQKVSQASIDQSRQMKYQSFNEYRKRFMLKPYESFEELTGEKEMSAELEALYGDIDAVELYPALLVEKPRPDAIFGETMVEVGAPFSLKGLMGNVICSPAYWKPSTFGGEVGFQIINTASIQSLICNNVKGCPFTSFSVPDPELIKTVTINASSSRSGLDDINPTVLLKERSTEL
In words: Human whole blood assay, COX-2 inhibition. Format: cell-based. Also on record: endogenous in cells; host or cells: human whole blood. As to conditions: read-out: IC50 COX-II. The procedure:
(§3) 2) Human Whole Blood Assay:
An aliquot of fresh blood was mixed either with DMSO or test compounds and was allowed to clot for 1 hour at 37° C. TXB2 levels in the serum were measured using EIA kit (Cayman chemicals, USA) after deproteinization.

In a further data set the target is T3, COX-1 (Homo sapiens, UniProt P23219).
T3 construct: Fresh heparinised human whole blood; endogenous in cells; host or cells: human whole blood
T3 sequence (P23219 24-599): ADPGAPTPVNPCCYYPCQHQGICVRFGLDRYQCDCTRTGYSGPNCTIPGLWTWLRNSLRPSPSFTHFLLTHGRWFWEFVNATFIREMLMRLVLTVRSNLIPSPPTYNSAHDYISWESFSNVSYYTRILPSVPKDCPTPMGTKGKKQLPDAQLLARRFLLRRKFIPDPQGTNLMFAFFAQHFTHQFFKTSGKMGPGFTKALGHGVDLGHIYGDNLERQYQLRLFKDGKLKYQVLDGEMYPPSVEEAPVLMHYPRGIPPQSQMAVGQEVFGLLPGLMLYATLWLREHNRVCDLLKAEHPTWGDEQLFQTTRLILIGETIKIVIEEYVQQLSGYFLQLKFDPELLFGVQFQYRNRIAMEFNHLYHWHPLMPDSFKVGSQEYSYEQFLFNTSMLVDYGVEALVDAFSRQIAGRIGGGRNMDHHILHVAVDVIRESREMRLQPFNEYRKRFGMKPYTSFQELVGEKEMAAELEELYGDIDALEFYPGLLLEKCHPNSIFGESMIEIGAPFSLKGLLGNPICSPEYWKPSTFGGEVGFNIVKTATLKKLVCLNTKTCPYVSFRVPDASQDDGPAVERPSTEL
Nature of the data set: Human whole blood assay, COX-1 inhibition. Format: cell-based. The procedure:
as §3
Fresh heparinised human whole blood was incubated with lipopolysaccharide (LPS) from E. coli at 100 μg/ml and with 2.5 μl vehicle (D)MSO) or test compound for 24 hours at 37° C. PGE2 levels in the plasma were measured using EIA kit (Cayman chemicals, USA) after deproteinization.

The target of data set [2] is T2, COX-2. Nature of the data set: Spectrophotometric assay of cox-2 (TMPD oxidation). As to conditions: microsomes from sf-9 cells with human cox-2, read-out: Percent inhibition COX-2; for inhibition at 100 µM: Conc. 100 μM. Also on record: made in house; host or cells: sf-9 insect cells, baculovirus. Format: biochemical. The protocol: as §1, §2

Where only a bound is given, the exact number is not on record here.

By inhibition is commonly meant the relative decrease from the control value, in per cent. In general, IC50 refers to the concentration that gives 50% inhibition. For orientation: melting point means the temperature, or range, at which the solid turns liquid. Consider `CS(=O)(=O)c1ccc(C2=C(c3cccc(F)c3)C(=O)OC2)c(F)c1` [Example 52, 4-(2-Fluoro-4-methylsulfonylphenyl)-3-(3-fluorophenyl)-2,5-dihydro-2-furanone], for which the melting point lay in the range of 125 to 128 °C. At cox-1 enzyme, the inhibition at 100 µM worked out at 12%. Also, the IC50 at COX-2 [1] came to 0.578 ± 0.011 µM. Further, the IC50 on COX-1 worked out at 1220 ± 20 µM. The inhibition at 100 µM on COX-2 [2] was 100%.

`CC1OC(=O)C(c2ccc(F)cc2)=C1c1ccc(S(C)(=O)=O)c(F)c1` (stereo not drawn) [Example 89, 4-(3-Fluoro-4-methylsulfonylphenyl)-3-(4-fluorophenyl)-5-methyl-2,5-dihydro-2-furanone] gave a melting point of 190 to 192 °C. In addition, at cox-1 enzyme (Conc. 10 μM), the inhibition at 10 µM turned out to be 0%. Also, on COX-2 [1], the IC50 came to 6.13 µM. In addition, at COX-1, the half-maximal inhibitory concentration (IC50) is greater than 1000 µM. Also, at COX-2 [2] (Conc. 10 μM), the inhibition at 10 µM is 95%.

For the compound `CS(=O)(=O)c1ccc(C2=C(c3ccc(F)cc3)C(=O)OC2)c(F)c1` [Example 1, 3-(4-Fluorophenyl)-4-(2-fluoro-4-methylsulfonylphenyl)-2,5-dihydro-2-furanone], the melting point is 160 to 162 °C. Also, the inhibition at 100 µM at cox-1 enzyme was found to be 33%. On COX-2 [1], the IC50 was 2.72 ± 0.425 µM. Also, at COX-1, the IC50 was determined as 195 ± 27.5 µM. Further, the inhibition at 100 µM at COX-2 [2] amounted to 100%.

The compound `CSc1ccc(C2=C(c3ccc(S(C)(=O)=O)c(F)c3)COC2=O)cc1C` [Example 53, 4-(3-Fluoro-4-methylsulfonylphenyl)-3-(3-methyl-4-methylsulfanylphenyl)-2,5-dihydro-2-furanone] displayed a melting point of 177 to 180 °C. Further, the inhibition at 100 µM on cox-1 enzyme came to 44%. In addition, the IC50 on COX-2 [1] came out at 0.368 µM. At COX-1, this compound displayed an IC50 of 247 ± 24 µM. Also, the inhibition at 100 µM at COX-2 [2] worked out at 100%.

The compound `COc1ccc(C2=C(c3ccc(S(C)(=O)=O)cc3F)COC2=O)cc1C` [Example 58, 4-(2-Fluoro-4-methylsulfonylphenyl)-3-(3-methyl-4-methoxyphenyl)-2,5-dihydro-2-furanone] displayed a melting point of 144 to 146 °C. The inhibition at 100 µM on cox-1 enzyme is 19%. Further, the half-maximal inhibitory concentration (IC50) on COX-2 [1] was found to be 0.524 ± 0.062 µM. Also, the IC50 on COX-1 is 357 ± 7.45 µM. Moreover, on COX-2 [2], the inhibition at 100 µM came to 93%.

`COc1ccc(C2=C(c3ccc(S(C)(=O)=O)c(C)c3)COC2=O)cc1C` [Example 55, 3-(3-Methyl-4-methoxyphenyl)-4-(3-methyl-4-methylsulfonylphenyl)-2,5-dihydro-2-furanone] returned a melting point of 147 to 150 °C. Moreover, the inhibition at 100 µM at cox-1 enzyme was found to be 30%. Besides, the half-inhibitory concentration (IC50) on COX-2 [1] was 1 µM. Besides, the 50% inhibitory concentration (IC50) against COX-1 is greater than 100 µM. Further, the inhibition at 100 µM on COX-2 [2] was determined as 100%.

Compound `CS(=O)(=O)c1ccc(C2=C(c3ccc(F)c(F)c3)C(=O)OC2)c(F)c1` [Example 69, 3-(3,4-Difluorophenyl)-4-(2-fluoro-4-methylsulfonylphenyl)-2,5-dihydro-2-furanone] came in with a melting point of 146 to 148 °C. At cox-1 enzyme, the inhibition at 100 µM was 10%. For the same compound, the concentration for half-maximal inhibition (IC50) on COX-2 [1] came out at 0.318 ± 0.013 µM. Further, the IC50 on COX-1 is greater than 500 µM. Also, the inhibition at 100 µM at COX-2 [2] was found to be 93%.

On to `Cc1cc(C2=C(c3ccccc3)C(=O)OC2)ccc1S(C)(=O)=O` [Example 6, 4-(3-Methyl-4-methylsulfonylphenyl)-3-phenyl-2,5-dihydro-2-furanone], for which the melting point is 167 to 170 °C. Besides, the inhibition at 100 µM at cox-1 enzyme is 0%. Also, the half-maximal inhibitory concentration (IC50) at COX-2 [1] was found to be 5.7 µM. For the same compound, the half-maximal inhibitory concentration (IC50) against COX-1 is greater than 500 µM. The inhibition at 100 µM on COX-2 [2] was determined as 82%.

Take `CS(=O)(=O)c1ccc(C2=C(c3cc(F)cc(F)c3)C(=O)OC2)c(F)c1` [Example 70, 3-(3,5-Difluorophenyl)-4-(2-fluoro-4-methylsulfonylphenyl)-2,5-dihydro-2-furanone]: the melting point was in the range of 125 to 127 °C. In addition, the inhibition at 100 µM at cox-1 enzyme was 49%. Moreover, at COX-2 [1], the IC50 was found to be 0.913 µM. On COX-1, this compound came in with an IC50 of 115 µM. Moreover, the inhibition at 100 µM at COX-2 [2] worked out at 92%.
